Where a name gives a salt, the structure may show the parent alone.
Legend:
[1] = tested on: Glutamic Acid at Neuromuscular Junctions of Crayfish (opener muscles of the first walking legs); assay: Blocking effects against Glutamic Acid at Neuromuscular Junctions of Crayfish; conditions: 5-minute pretreatment, L-glutamic acid 10^-4 M
[2] = tested on: Anemic Decerebrate Rigidity Sample (EMG, M. triceps brachii); assay: Effects on Anemic Decerebrate Rigidity Sample (suppression of EMG of forelimb muscle); assay type: in vivo, Wistar male rats; conditions: iv, 10 min; rat, 3 mg/kg in physiological saline through femoral vein, 10 minutes after administration; read-out: Suppression rate
[3] = Acute Toxicity (up-and-down method); conditions: mouse, in vivo, iv (caudal vein), ddN male mice
Procedure: Using ddN male mice, the acute toxicity level of each test compound was determined in accordance with an up-and-down method. Some of the test compounds used were dissolved in physiological saline and administered through the caudal vein.

[4] = reported by Nikolova; cited from earlier work
[5] = tested on: neuraxial muscle relaxing effect; assay: Neuraxial muscle relaxing effect, experiment conducted by the inventors; assay type: in vivo
[6] = tested on: higher animals; conditions: Oleny et al; cited from earlier work
[7] = tested on: glutamic acid; conditions: in higher animals; cited from earlier work
[8] = test compound 2 × 10^-4 M, 200 µM
[9] = test compound 2 × 10^-5 M, 20 µM

Structure (SMILES) | inhibition in vivo at 3 mg/kg [2] [%] | LD50 [3] [mg/kg] | further results
C[C@@H]1[C@H](c2ccccc2)OC(=O)N1CCN1CCCCC1.Cl (racemic) [Comparative compound 2, (4RS,5SR)-4-methyl-5-phenyl-3-(2-piperidinoethyl)-1,3-oxazolidine-2-one hydrochloride, reference compound] | 3.6 |  | Blocking rate against glutamic acid [1, 8]: 0%
C[C@@H]1[C@@H](c2ccccc2)OC(=O)N1CCN1CCCCC1 (racemic) [Comparative compound 3, (4RS,5RS)-4-methyl-5-phenyl-3-(2-piperidinoethyl)-1,3-oxazolidine-2-one hydrochloride, reference compound] | 2.2 |  | 
C[C@@H]1[C@H](c2ccccc2)OC(=O)N1CCN1CCCC1.Cl (racemic) [Comparative compound 4, (4RS,5SR)-4-methyl-5-phenyl-3-(2-pyrrolidinoethyl)-1,3-oxazolidine-2-one hydrochloride, reference compound] | 1 |  | Blocking rate against glutamic acid [1, 8]: 45%
C[C@@H]1[C@@H](c2ccccc2)OC(=O)N1CCN1CCCC1 (racemic) [Comparative compound 5, (4RS,5RS)-4-methyl-5-phenyl-3-(2-pyrrolidinoethyl)-1,3-oxazolidine-2-one hydrochloride, reference compound] | 3 |  | 
CC(C)[C@@H]1[C@H](c2ccccc2)OC(=O)N1CCCN1CCCCC1 (racemic) [Compound 1, (4RS,5SR)-4-(1-methylethyl)-5-phenyl-3-(3-piperidinopropyl)-1,3-oxazolidine-2-one] | 12 | 29.7 | 
CC(C)[C@@H]1[C@@H](c2ccccc2)OC(=O)N1CCCN1CCCCC1 (racemic) [Compound 2, (4RS,5RS)-4-(1-methylethyl)-5-phenyl-3-(3-piperidinopropyl)-1,3-oxazolidine-2-one] | 19.8 | 18.8 | 
CC(C)C[C@@H]1[C@H](c2ccccc2)OC(=O)N1CCCN1CCCCC1 (racemic) [Compound 3, (4RS,5SR)-4-(2-methylpropyl)-5-phenyl-3-(3-piperidinopropyl)-1,3-oxazolidine-2-one] | 18 | 55.5 | Blocking rate against glutamic acid [1, 8]: 89%
CC(C)C[C@@H]1[C@@H](c2ccccc2)OC(=O)N1CCCN1CCCCC1 (racemic) [Compound 4, (4RS,5RS)-4-(2-methylpropyl)-5-phenyl-3-(3-piperidinopropyl)-1,3-oxazolidine-2-one] | 21.2 | 29.9 | Blocking rate against glutamic acid [1, 8]: 88%
CC(C)[C@@H]1[C@@H](c2ccccc2)OC(=O)N1CCCN1CCCC1 (racemic) [Compound 10, (4RS, 5RS)-4-(1-methylethyl)-5-phenyl-3-(3-pyrrolidinopropyl)-1,3-oxazolidine-2-one] | 18.7 | 54.6 | 
CC(C)C[C@@H]1[C@H](c2ccccc2)OC(=O)N1CCCN1CCCC1 (racemic) [Compound 13, (4RS,5SR)-4-(2-methylpropyl)-5-phenyl-3-(3-pyrrolidinopropyl)-1,3-oxazolidine-2-one] |  | 75.1 | Blocking rate against glutamic acid [1, 8]: 80%
CC(C)C[C@@H]1[C@@H](c2ccccc2)OC(=O)N1CCCN1CCCC1 (racemic) [Compound 14, (4RS,5RS)-4-(2-methylpropyl)-5-phenyl-3-(3-pyrrolidinopropyl)-1,3-oxazolidine-2-one] | 10.2 | 53.2 | 
Cc1ccc([C@@H]2OC(=O)N(CCCN3CCCCC3)[C@@H]2CC(C)C)cc1 (racemic) [Compound 25, (4RS,5SR)-5-(4-methylphenyl)-4-(2-methylpropyl)-3-(3-piperidinopropyl)-1,3-oxazolidine-2-one] | 10.9 | 34.9 | 
COc1ccc([C@@H]2OC(=O)N(CCCN3CCCCC3)[C@@H]2CC(C)C)cc1 (racemic) [Compound 27, (4RS,5SR)-5-(4-methoxyphenyl)-4-(2-methylpropyl)-3-(3-piperidinopropyl)-1,3-oxazolidine-2-one] | 8.4 | 39.8 | 
CC(C)C[C@@H]1[C@H](c2ccc(F)cc2)OC(=O)N1CCCN1CCCCC1 (racemic) [Compound 29, (4RS,5SR)-5-(4-fluorophenyl)-4-(2-methylpropyl)-3-(3-piperidinopropyl)-1,3-oxazolidine-2-one] | 9.9 | 66.1 | 
CCCC[C@@H]1[C@@H](c2ccccc2)OC(=O)N1CCCN1CCCCC1 (racemic) [Compound 35, (4RS,5RS)-4-butyl-5-phenyl-3-(3-piperidinopropyl)-1,3-oxazolidine-2-one] |  |  | Blocking rate against glutamic acid [1, 9]: 68%
CCCC[C@@H]1[C@H](c2ccccc2)OC(=O)N1CCCN1CCCCC1 (racemic) [Compound 36, (4RS,5SR)-4-butyl-5-phenyl-3-(3-piperidinopropyl)-1,3-oxazolidine-2-one] |  |  | Blocking rate against glutamic acid [1, 9]: 53%
CCCCC[C@@H]1[C@@H](c2ccccc2)OC(=O)N1CCCN1CCCCC1 (racemic) [Compound 37, (4RS,5RS)-4-pentyl-5-phenyl-3-(3-piperidinopropyl)-1,3-oxazolidine-2-one] |  |  | Blocking rate against glutamic acid [1, 9]: 58%
CC(C)CC[C@@H]1[C@H](c2ccccc2)OC(=O)N1CCCN1CCCCC1 (racemic) [Compound 40, (4RS,5SR)-4-(3-methylbutyl)-5-phenyl-3-(3-piperidinopropyl)-1,3-oxazolidine-2-one] |  | 53.6 | Blocking rate against glutamic acid [1, 9]: 61%
CCCCCC[C@@H]1[C@@H](c2ccccc2)OC(=O)N1CCCN1CCCCC1 (racemic) [Compound 41, (4RS,5RS)-4-hexyl-5-phenyl-3-(3-piperidinopropyl)-1,3-oxazolidine-2-one] |  |  | Blocking rate against glutamic acid [1, 9]: 69%
CC1C(c2ccccc2)OC(=O)N1CCN1CCCCC1 (stereo not shown) [4-methyl-5-phenyl-3-(2-piperidinoethyl)-1,3-oxazolidine-2-one] |  |  | analgesic effect [4]: has an analgesic effect; anti-convulsion effect [4]: exerts no anti-convulsion; neuraxial muscle relaxing effect [4]: exerts no anti-convulsion nor neuraxial muscle relaxing effects; neuraxial muscle relaxing effect [5]: extremely weak
Cc1ccc(C(=O)C(C)CN2CCCCC2)cc1 (stereo not shown) [Comparative compound 1, toluperisone hydrochloride, reference compound] | 4.8 |  | 
CC(C)C[C@H]1[C@@H](c2ccccc2)OC(=O)N1CCCN1CCCCC1 [Compound 5, (4S,5R)-4-(2-methylpropyl)-5-phenyl-3-(3-piperidinopropyl)-1,3-oxazolidine-2-one] | 37.7 | 69 | Blocking rate against glutamic acid [1, 8]: 91%
CC(C)C[C@@H]1[C@H](c2ccccc2)OC(=O)N1CCCN1CCCCC1 [Compound 6, (4R,5S)-4-(2-methylpropyl)-5-phenyl-3-(3-piperidinopropyl)-1,3-oxazolidine-2-one] | 14.9 |  | 
CC(C)C[C@H]1[C@H](c2ccccc2)OC(=O)N1CCCN1CCCCC1 [Compound 7, (4S,5S)-4-(2-methylpropyl)-5-phenyl-3-(3-piperidinopropyl)-1,3-oxazolidine-2-one] | 64.8 | 30.4 | Blocking rate against glutamic acid [1, 8]: 92%
CC(C)C[C@@H]1[C@@H](c2ccccc2)OC(=O)N1CCCN1CCCCC1 [Compound 8, (4R,5R)-4-(2-methylpropyl)-5-phenyl-3-(3-piperidinopropyl)-1,3-oxazolidine-2-one] | 12 |  | 
CC(C)C[C@H]1[C@@H](c2ccccc2)OC(=O)N1CCCN1CCCCCC1 [Compound 17, (4S,5R)-4-(2-methylpropyl)-3-[3-(perhydroazepine-1-yl-)propyl]-5-phenyl-1,3-oxazolidine-2-one] | 93 | 40.1 | Blocking rate against glutamic acid [1, 8]: 90%
C/C(=C/C=C/[C@@H](C)C(=O)O)[C@H]1CN[C@H](C(=O)O)[C@H]1CC(=O)O [domoic acid] |  |  | effects induced from administration [6]: dystropy, rigidity, tremor, convulsion and the like are induced; agonist for glutamic acid [7]: extremely strong agonist
N[C@H](C(=O)O)c1cc(=O)[nH]o1 [ibotenic acid] |  |  | effects induced from administration [6]: dystropy, rigidity, tremor, convulsion and the like are induced; agonist for glutamic acid [7]: extremely strong agonist
C=C(C)[C@H]1CN[C@H](C(=O)O)[C@H]1CC(=O)O [kainic acid] |  |  | effects induced from administration [6]: dystropy, rigidity, tremor, convulsion and the like are induced; agonist for glutamic acid [7]: extremely strong agonist
N[C@@H](Cn1oc(=O)[nH]c1=O)C(=O)O [quisqualic acid] |  |  | effects induced from administration [6]: dystropy, rigidity, tremor, convulsion and the like are induced; agonist for glutamic acid [7]: extremely strong agonist
